The test system of the test is recombinant rabies virus 1088 strain expressing Gaussia Luciferase (GLuc) (1088/GLuc). In kind it is cell-based.

Each structure is given as a SMILES string. Like-named read-outs stand apart in the source and are kept apart here.

Turning to `O=C(NCCc1ccccc1)[C@@]12C[C@@H]3CN(Cc4cccc5ccccc45)[C@@H]([C@@H]3CN1)[C@H]2Cc1ccc(O)cc1` (relative stereo) [IF-708], the IC50 (read-out: Anti-rabies activity) was under 5 µM.

As for `CC(C)CCNC(=O)[C@@]12C[C@@H]3CN(CC4CCCCC4)[C@@H]([C@@H]3CN1)[C@H]2Cc1ccc(O)cc1` (relative stereo) [IF-709], the IC50 (read-out: Anti-rabies activity) fell in the range of 10 to 30 µM.

`O=C(NCCc1ccccc1)[C@@]12C[C@@H]3CN(CC4CCCCC4)[C@@H]([C@@H]3CN1)[C@H]2Cc1ccccc1` (relative stereo) [IF-710]: the IC50 (read-out: Anti-rabies activity) was under 5 µM.

For the compound `CC(C)C[C@@H]1[C@@H]2[C@@H]3CN[C@@]1(C(=O)NCCc1ccccc1)C[C@@H]3CN2CC1CCCCC1` (relative stereo) [IF-711], the IC50 (read-out: Anti-rabies activity) is 10 to 30 µM.

As to `CC(C)C[C@@H]1[C@@H]2[C@@H]3CN[C@@]1(C(=O)NCCc1ccccc1)C[C@@H]3CN2Cc1ccc(F)cc1` (relative stereo) [IF-714], the IC50 (read-out: Anti-rabies activity) was under 5 µM.

In the case of `O=C(NCCc1ccccc1)[C@@]12C[C@@H]3CN(Cc4ccc(F)cc4)[C@@H]([C@@H]3CN1)[C@H]2Cc1ccc(O)cc1` (relative stereo) [IF-715], for the setting “read-out: Anti-rabies activity”, the IC50 was under 5 µM.

For `CC(C)CC[C@@H]1[C@@H]2[C@@H]3CN[C@@]1(C(=O)NCCc1ccccc1)C[C@@H]3CN2CC1CCCCC1` (relative stereo) [IF-717], the IC50 (read-out: Anti-rabies activity) was under 5 µM.

With `O=C(NCCc1ccccc1)[C@@]12C[C@@H]3CN(CC4CCCCC4)[C@@H]([C@@H]3CN1)[C@H]2Cc1cccc2ccccc12` (relative stereo) [IF-718], the IC50 (read-out: Anti-rabies activity) is under 5 µM.

Turning to `CC(C)C[C@@H]1[C@@H]2[C@@H]3CN[C@@]1(C(=O)NCCc1ccccc1)C[C@@H]3CN2Cc1ccccc1` (relative stereo) [IF-721], the IC50 (read-out: Anti-rabies activity) is under 5 µM.

Take `O=C(NCCc1ccccc1)[C@@]12C[C@@H]3CN(Cc4ccccc4)[C@@H]([C@@H]3CN1)[C@H]2Cc1ccc(O)cc1` (relative stereo) [IF-722]: under “read-out: Anti-rabies activity”, the IC50 was under 5 µM.

Consider `CC(C)CC[C@@H]1[C@@H]2[C@@H]3CN[C@@]1(C(=O)NCCc1ccccc1)C[C@@H]3CN2Cc1ccccc1` (relative stereo) [IF-723], for which the IC50 (read-out: Anti-rabies activity) was in the range of 10 to 30 µM.

Regarding `CC(C)C[C@@H]1[C@@H]2[C@@H]3CN[C@@]1(C(=O)NCCc1ccccc1)C[C@@H]3CN2CC(C)C` (relative stereo) [IF-725], the IC50 (read-out: Anti-rabies activity) was in the range of 10 to 30 µM.

Regarding `CC(C)C[C@@H]1[C@@H]2[C@@H]3CN[C@@]1(C(=O)NCc1cccc4ccccc14)C[C@@H]3CN2CC(C)C` (relative stereo) [IF-726], under “read-out: Anti-rabies activity”, the IC50 is 10 to 30 µM.

Turning to `CC(C)CC[C@@H]1[C@@H]2[C@@H]3CN[C@@]1(C(=O)NCCc1ccccc1)C[C@@H]3CN2CC(C)C` (relative stereo) [IF-727], the IC50 (read-out: Anti-rabies activity) is under 5 µM.

For the compound `CC(C)CCN1C[C@H]2C[C@]3(C(=O)NCc4ccccc4)NC[C@H]2[C@H]1[C@H]3CC(C)C` (relative stereo) [IF-733], the IC50 (read-out: Anti-rabies activity) is under 5 µM.

Regarding `CC(C)CCN1C[C@H]2C[C@]3(C(=O)NCC(C)C)NC[C@H]2[C@H]1[C@H]3Cc1cccc2ccccc12` (relative stereo) [IF-734], under “read-out: Anti-rabies activity”, the IC50 is under 5 µM.

Consider `CC(C)CCN1C[C@H]2C[C@]3(C(=O)NCC(C)C)NC[C@H]2[C@H]1[C@H]3Cc1ccccc1` (relative stereo) [IF-735], for which, where the note is “read-out: Anti-rabies activity”, the IC50 fell in the range of 10 to 30 µM.

For the compound `CC(C)CNC(=O)[C@@]12C[C@@H]3CN(CCc4ccccc4)[C@@H]([C@@H]3CN1)[C@H]2CC(C)C` (relative stereo) [IF-738], the IC50 (read-out: Anti-rabies activity) was in the range of 10 to 30 µM.

Consider `CC(C)CNC(=O)[C@@]12C[C@@H]3CN(Cc4cccc5ccccc45)[C@@H]([C@@H]3CN1)[C@H]2CC(C)C` (relative stereo) [IF-739], for which the IC50 (read-out: Anti-rabies activity) is under 5 µM.

On to `CC(C)CC[C@@H]1[C@@H]2[C@@H]3CN[C@@]1(C(=O)NCc1ccccc1)C[C@@H]3CN2CC1CCCCC1` (relative stereo) [IF-740], for which the IC50 (read-out: Anti-rabies activity) was in the range of 10 to 30 µM.

`CC(C)CNC(=O)[C@@]12C[C@@H]3CN(CC4CCCCC4)[C@@H]([C@@H]3CN1)[C@H]2CC(C)C` (relative stereo) [IF-742]: the IC50 (read-out: Anti-rabies activity) is 10 to 30 µM.

With `CC(C)CC[C@@H]1[C@@H]2[C@@H]3CN[C@@]1(C(=O)NCc1ccccc1)C[C@@H]3CN2Cc1ccc(F)cc1` (relative stereo) [IF-743], the IC50 (read-out: Anti-rabies activity) lay in the range of 10 to 30 µM.

Turning to `CC(C)CCNC(=O)[C@@]12C[C@@H]3CN(CCc4ccccc4)[C@@H]([C@@H]3CN1)[C@H]2Cc1ccccc1` (relative stereo) [IF-744], the IC50 (read-out: Anti-rabies activity) is under 5 µM.

Take `CC(C)CN1C[C@H]2C[C@]3(C(=O)NCc4ccccc4)NC[C@H]2[C@H]1[C@H]3Cc1cccc2ccccc12` (relative stereo) [IF-753]: the IC50 (read-out: Anti-rabies activity) fell in the range of 10 to 30 µM.

In the case of `O=C(NCc1cccc2ccccc12)[C@@]12C[C@@H]3CN(CCO)[C@@H]([C@@H]3CN1)[C@H]2Cc1ccccc1` (relative stereo) [IF-758], the IC50 (read-out: Anti-rabies activity) is under 5 µM.

Turning to `CC(C)CN1C[C@H]2C[C@]3(C(=O)NCc4cccc5ccccc45)NC[C@H]2[C@H]1[C@H]3Cc1cccc2ccccc12` (relative stereo) [IF-778], where the note is “read-out: Anti-rabies activity”, the IC50 was under 5 µM.

With `O=C(NCc1cccc2ccccc12)[C@@]12C[C@@H]3CN(Cc4ccc(O)cc4)[C@@H]([C@@H]3CN1)[C@H]2Cc1cccc2ccccc12` (relative stereo) [IF-779], under “read-out: Anti-rabies activity”, the IC50 is 10 to 30 µM.

Regarding `CC(C)NC(=O)[C@@]12C[C@@H]3CN(Cc4cccc5ccccc45)[C@@H]([C@@H]3CN1)[C@H]2CCc1ccccc1` (relative stereo) [IF-789], the IC50 (read-out: Anti-rabies activity) lay within 10 to 30 µM.

For `CC(C)C[C@@H]1[C@@H]2[C@@H]3CN[C@@]1(C(=O)NCc1cccc4ccccc14)C[C@@H]3CN2Cc1ccccc1` (relative stereo) [IF-837], the IC50 (read-out: Anti-rabies activity) was 5 to 10 µM.

For `CC(C)C[C@@H]1[C@@H]2[C@@H]3CN[C@@]1(C(=O)NCc1ccc(C(F)(F)F)cc1)C[C@@H]3CN2Cc1ccccc1` (relative stereo) [IF-838], the IC50 (read-out: Anti-rabies activity) lay within 10 to 30 µM.

Take `CC(C)CNC(=O)[C@]12N=C[C@@H]3C[C@H]1CN(Cc1ccccc1)[C@H]2[C@@H]3CC(C)C` (relative stereo) [IIB-4, (3S*,3aS*,6R*,7R*,7aS*)-1-benzyl-N,7-diisobutyl-1,2,3,6,7,7a-hexahydro-3aH-3,6-methanopyrrolo[3,2-b]pyridine-3a-carboxamide]: the IC50 by setting is: (read-out: Anti-rabies activity) 5 to 10 µM; (read-out: IC50) 8.9 µM.

With `Cc1ccc(CNC(=O)[C@@]23C[C@@H]4CN(CC(C)C)[C@@H]([C@@H]4C=N2)[C@H]3Cc2ccccc2)cc1` (relative stereo) [IIF-16], the IC50 (read-out: Anti-rabies activity) lay within 10 to 30 µM and the IC50 (read-out: IC50) was 28.7 µM.

With `CC(C)CCN1C[C@H]2C[C@]3(C(=O)NCc4cccc(Cl)c4)N=C[C@H]2[C@H]1[C@H]3Cc1ccccc1` (relative stereo) [IIF-325], for the setting “read-out: Anti-rabies activity”, the IC50 was under 5 µM.

On to `CC(C)CCN1C[C@H]2C[C@]3(C(=O)NCc4ccc(F)cc4)N=C[C@H]2[C@H]1[C@H]3Cc1ccccc1` (relative stereo) [IIF-327], for which the IC50 (read-out: Anti-rabies activity) is under 5 µM.

With `Cc1ccc(CNC(=O)[C@@]23C[C@@H]4CN(CCC(C)C)[C@@H]([C@@H]4C=N2)[C@H]3Cc2ccccc2)cc1` (relative stereo) [IIF-328], for the setting “read-out: Anti-rabies activity”, the IC50 was under 5 µM.

Consider `COc1ccc(CNC(=O)[C@@]23C[C@@H]4CN(CCC(C)C)[C@@H]([C@@H]4C=N2)[C@H]3Cc2ccccc2)cc1` (relative stereo) [IIF-329], for which the IC50 (read-out: Anti-rabies activity) was under 5 µM.

With `COc1ccc(CNC(=O)[C@@]23C[C@@H]4CN(CC(C)C)[C@@H]([C@@H]4C=N2)[C@H]3CCc2ccccc2)cc1` (relative stereo) [IIF-332], the IC50 (read-out: Anti-rabies activity) was under 5 µM.

With `CC(C)CC1C2CNC3(C(=O)NCCc4ccccc4)C(C2)CN(CC(N)=O)C13` (stereo not drawn) [IB-86], the IC50 (read-out: Anti-rabies activity) fell in the range of 10 to 30 µM.

As for `NC(=O)CN1CC2CC3CNC2(C(=O)NCCc2ccccc2)C1C3Cc1ccccc1` (stereo not drawn) [IB-87], for the setting “read-out: Anti-rabies activity”, the IC50 is under 5 µM.

For `CCCCCCNC(=O)C12NCC3CC1CN(CC(N)=O)C2C3CCC(C)C` (stereo not drawn) [IB-108], under “read-out: Anti-rabies activity”, the IC50 fell in the range of 10 to 30 µM.

With `CCCCCCNC(=O)C12NCC3CC1CN(CC(N)=O)C2C3CCc1ccccc1` (stereo not drawn) [IB-109], for the setting “read-out: Anti-rabies activity”, the IC50 fell in the range of 10 to 30 µM.

Regarding `CCCCCCNC(=O)C12NCC3CC1CN(CC(N)=O)C2C3Cc1cccc2ccccc12` (stereo not drawn) [IB-110], for the setting “read-out: Anti-rabies activity”, the IC50 was under 5 µM.

For the compound `NC(=O)CN1CC2CC3CNC2(C(=O)NCc2ccccc2)C1C3CCc1ccccc1` (stereo not drawn) [IB-130], the IC50 (read-out: Anti-rabies activity) was 10 to 30 µM.

Take `CC(C)CNC(=O)C12NCC3CC1CN(Cc1ccc(O)cc1)C2C3CCCNC(=N)N` (stereo not drawn) [IB-203]: under “read-out: Anti-rabies activity”, the IC50 is 10 to 30 µM.

For the compound `N=C(N)NCCCC1C2CNC3(C(=O)NCc4ccc(F)cc4)C(C2)CN(Cc2ccc(O)cc2)C13` (stereo not drawn) [IB-207], the IC50 (read-out: Anti-rabies activity) was in the range of 10 to 30 µM.

For `O=C(O)CCNC(=O)C12NCC3CC1CN(Cc1ccc(F)cc1)C2C3Cc1cccc2ccccc12` (stereo not drawn) [IB-384], the IC50 (read-out: Anti-rabies activity) lay in the range of 10 to 30 µM.

With `CC(C)CCN1CC2CC3CNC2(C(=O)NCc2ccc(F)cc2)C1C3CCC(=O)O` (stereo not drawn) [IB-386], the IC50 (read-out: Anti-rabies activity) was in the range of 10 to 30 µM.

In the case of `O=C(O)CCC1C2CNC3(C(=O)NCc4cccc5ccccc45)C(C2)CN(CC2CCCCC2)C13` (stereo not drawn) [IB-389], for the setting “read-out: Anti-rabies activity”, the IC50 fell in the range of 10 to 30 µM.

`O=C(O)CCC1C2CNC3(C(=O)NCc4cccc5ccccc45)C(C2)CN(Cc2ccc(F)cc2)C13` (stereo not drawn) [IB-390]: the IC50 (read-out: Anti-rabies activity) fell in the range of 10 to 30 µM.

With `CC(C)CC1C2CNC3(C(=O)NCc4cccc5ccccc45)C(C2)CN(CCC(=O)O)C13` (stereo not drawn) [IB-392], where the note is “read-out: Anti-rabies activity”, the IC50 is 10 to 30 µM.

`O=C(O)CCN1CC2CC3CNC2(C(=O)NCc2ccc(F)cc2)C1C3Cc1ccccc1` (stereo not drawn) [IB-394]: the IC50 (read-out: Anti-rabies activity) lay within 10 to 30 µM.

Consider `CC(C)CCC1C2CNC3(C(=O)NCc4cccc5ccccc45)C(C2)CN(CCC(=O)O)C13` (stereo not drawn) [IB-398], for which the IC50 (read-out: Anti-rabies activity) lay within 10 to 30 µM.

For the compound `CC(C)CCC1C2CNC3(C(=O)NCc4ccc(F)cc4)C(C2)CN(CCC(=O)O)C13` (stereo not drawn) [IB-399], the IC50 (read-out: Anti-rabies activity) was in the range of 10 to 30 µM.

Consider `CC(C)CCC1C2CNC3(C(=O)NCc4ccc(O)cc4)C(C2)CN(CCC(=O)O)C13` (stereo not drawn) [IB-402], for which, for the setting “read-out: Anti-rabies activity”, the IC50 was in the range of 10 to 30 µM.

On to `O=C(O)CCNC(=O)C12NCC3CC1CN(Cc1ccc(O)cc1)C2C3Cc1cccc2ccccc12` (stereo not drawn) [IB-410], for which the IC50 (read-out: Anti-rabies activity) fell in the range of 10 to 30 µM.

As to `O=C(NCc1ccc(O)cc1)C12NCC3CC1CN(Cc1cccc4ccccc14)C2C3Cc1cccc2ccccc12` (stereo not drawn) [IB-417], the IC50 (read-out: Anti-rabies activity) fell in the range of 10 to 30 µM.

Turning to `O=C(O)CCC1C2CNC3(C(=O)NCc4cccc5ccccc45)C(C2)CN(CCO)C13` (stereo not drawn) [IB-425], where the note is “read-out: Anti-rabies activity”, the IC50 fell in the range of 10 to 30 µM.

On to `CC(C)CCN1CC2CC3CNC2(C(=O)NCc2cccc4ccccc24)C1C3CO` (stereo not drawn) [IB-426], for which the IC50 (read-out: Anti-rabies activity) was under 5 µM.

The record behind these values is patent EP4104902B1, “COMPOUNDS AND M[…] SAME” (priority 2020, dated 2021).
